Reference: PubChem BioAssay (NCI)
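Method: 48-hour compound exposure of cells in 96-well plates, five concentrations, linear interpolation of endpoints. TGI denotes the concentration required for complete inhibition of growth.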

Columns and labels:
Test in all cases: NCI tumour cell line growth inhibition, 48 h
CAKI-1 renal = test system: CAKI-1 renal
U251 CNS = test system: U251 CNS
XF 498 CNS = test system: XF 498 CNS
SNB-19 CNS = test system: SNB-19 CNS
SK-OV-3 ovarian = test system: SK-OV-3 ovarian
LXFL 529 NSCLC = test system: LXFL 529 NSCLC
CCRF-CEM leukemia = test system: CCRF-CEM leukemia
LOX IMVI melanoma = test system: LOX IMVI melanoma
KM12 colon = test system: KM12 colon
HCC-2998 colon = test system: HCC-2998 colon
DMS 273 small cell lung = test system: DMS 273 small cell lung
EKVX NSCLC = test system: EKVX NSCLC
HOP-92 NSCLC = test system: HOP-92 NSCLC
SNB-78 CNS = test system: SNB-78 CNS
A498 renal = test system: A498 renal
OVCAR-8 ovarian = test system: OVCAR-8 ovarian
TK-10 renal = test system: TK-10 renal
SNB-75 CNS = test system: SNB-75 CNS
M14 melanoma = test system: M14 melanoma
ACHN renal = test system: ACHN renal
RPMI-8226 leukemia = test system: RPMI-8226 leukemia
SF-539 CNS = test system: SF-539 CNS
NCI-H460 lung = test system: NCI-H460 lung
SF-268 CNS = test system: SF-268 CNS
UACC-257 melanoma = test system: UACC-257 melanoma
HT29 colon = test system: HT29 colon
HOP-62 NSCLC = test system: HOP-62 NSCLC
SW-620 colon = test system: SW-620 colon
RXF-631 renal = test system: RXF-631 renal
UO-31 renal = test system: UO-31 renal
K-562 leukemia = test system: K-562 leukemia
NCI-H522 lung = test system: NCI-H522 lung
A549 NSCLC = test system: A549 NSCLC
MOLT-4 leukemia = test system: MOLT-4 leukemia
OVCAR-3 ovarian = test system: OVCAR-3 ovarian
OVCAR-5 ovarian = test system: OVCAR-5 ovarian
IGROV1 ovarian = test system: IGROV1 ovarian
NCI-H23 lung = test system: NCI-H23 lung
HOP-18 NSCLC = test system: HOP-18 NSCLC
UACC-62 melanoma = test system: UACC-62 melanoma
SN12C renal = test system: SN12C renal
HCT-15 colon = test system: HCT-15 colon
SR leukemia = test system: SR leukemia
HL-60(TB) leukemia = test system: HL-60(TB) leukemia
SF-295 CNS = test system: SF-295 CNS
M19-MEL melanoma = test system: M19-MEL melanoma
SK-MEL-28 melanoma = test system: SK-MEL-28 melanoma
786-0 renal = test system: 786-0 renal
HCT-116 colon = test system: HCT-116 colon
SK-MEL-5 melanoma = test system: SK-MEL-5 melanoma
OVCAR-4 ovarian = test system: OVCAR-4 ovarian
KM20L2 colon = test system: KM20L2 colon
SK-MEL-2 melanoma = test system: SK-MEL-2 melanoma
RXF 393 renal = test system: RXF 393 renal
DMS 114 small cell lung = test system: DMS 114 small cell lung
MALME-3M melanoma = test system: MALME-3M melanoma
DLD-1 colon = test system: DLD-1 colon
COLO 205 colon = test system: COLO 205 colon
NCI-H226 lung = test system: NCI-H226 lung

Measured: TGI

COC(=O)C12CC3CC(CC(C(=O)O)(C3)C1)C2
not listed: SK-MEL-2 melanoma | RXF 393 renal | DMS 114 small cell lung | MALME-3M melanoma | DLD-1 colon | COLO 205 colon | NCI-H226 lung
> 100 µM: all other assays above

O=C(Nc1cc(Cl)c(Cl)cc1Cl)C(=O)C1C(=O)NC(=S)NC1=O
not listed: OVCAR-3 ovarian
> 100 µM: all other assays above
